# Data: patent US9062066B2, “Anti-inflammatory compound having inhibitory activity against multiple tyrosine kinases and pharmaceutical composition containing same” (KOREA INSTITUTE OF SCIENCE AND TECHNOLOGY, priority 2010, dated 2015)
# Like-named read-outs stand apart in the source and are kept apart here.
# Legend:
# [1] = tested on: oxazolone-induced skin inflammation of Balb/C mouse ears; test: mouse skin inflammatory model induced by oxazolone (ear thickness); type: in vivo; settings: 20 ul of 0.1% compound topical on ear, 36 hours after oxazolone
# Method: The compounds of the present invention were evaluated for their effective anti-inflammatory activity using a skin inflammatory animal model of 8 weeks old Balb/C mouse ears induced by oxazolone. […] After 4 days, the thickness of ear was measured using a caliper for the thickness value of ear before the induction of inflammation. […] After 36 hours, the thickness of ear was measured for the increased thickness induced by inflammation. […] The average value was obtained in each group (n=4).
# Lyn tyrosine kinase = Lyn tyrosine kinase (Homo sapiens (Human), UniProt P07948); test: in vitro Lyn tyrosine kinase inhibition; type: biochemical; settings: read-out: % inhibition against Lyn
# Lyn tyrosine kinase, sequence (P07948 whole entry, the tested form may be a part): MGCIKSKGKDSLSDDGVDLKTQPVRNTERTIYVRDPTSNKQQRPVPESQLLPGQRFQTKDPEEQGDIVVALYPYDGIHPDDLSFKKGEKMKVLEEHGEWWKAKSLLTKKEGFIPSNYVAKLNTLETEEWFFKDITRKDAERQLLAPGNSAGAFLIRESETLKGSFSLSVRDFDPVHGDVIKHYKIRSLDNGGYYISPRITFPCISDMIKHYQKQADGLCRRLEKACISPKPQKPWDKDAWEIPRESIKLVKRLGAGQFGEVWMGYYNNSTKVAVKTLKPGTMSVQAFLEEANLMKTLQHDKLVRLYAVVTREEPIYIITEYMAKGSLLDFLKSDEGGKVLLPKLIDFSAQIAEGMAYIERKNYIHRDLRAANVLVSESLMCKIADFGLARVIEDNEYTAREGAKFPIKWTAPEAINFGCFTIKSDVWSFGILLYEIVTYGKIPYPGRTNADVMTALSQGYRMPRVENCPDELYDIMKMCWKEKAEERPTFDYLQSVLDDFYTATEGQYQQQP
# DDR1 tyrosine kinase = DDR1 tyrosine kinase (Homo sapiens (Human), UniProt Q08345); test: in vitro DDR1 tyrosine kinase inhibition (GST-fused kinase domain); type: biochemical; settings: read-out: % inhibition against DDR1
# DDR1 tyrosine kinase, sequence (Q08345 610-905): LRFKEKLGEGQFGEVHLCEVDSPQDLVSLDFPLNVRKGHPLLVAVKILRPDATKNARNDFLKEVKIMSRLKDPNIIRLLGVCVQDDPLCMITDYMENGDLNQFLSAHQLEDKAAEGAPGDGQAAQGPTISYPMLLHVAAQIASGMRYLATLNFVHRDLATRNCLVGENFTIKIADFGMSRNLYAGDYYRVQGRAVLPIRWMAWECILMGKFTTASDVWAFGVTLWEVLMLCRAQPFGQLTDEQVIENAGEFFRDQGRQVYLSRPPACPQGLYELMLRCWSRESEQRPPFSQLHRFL
# Fgr tyrosine kinase = Fgr tyrosine kinase (Homo sapiens (Human), UniProt P09769); test: in vitro Fgr tyrosine kinase inhibition; type: biochemical; settings: read-out: % inhibition against Fgr
# Fgr tyrosine kinase, sequence (P09769 whole entry): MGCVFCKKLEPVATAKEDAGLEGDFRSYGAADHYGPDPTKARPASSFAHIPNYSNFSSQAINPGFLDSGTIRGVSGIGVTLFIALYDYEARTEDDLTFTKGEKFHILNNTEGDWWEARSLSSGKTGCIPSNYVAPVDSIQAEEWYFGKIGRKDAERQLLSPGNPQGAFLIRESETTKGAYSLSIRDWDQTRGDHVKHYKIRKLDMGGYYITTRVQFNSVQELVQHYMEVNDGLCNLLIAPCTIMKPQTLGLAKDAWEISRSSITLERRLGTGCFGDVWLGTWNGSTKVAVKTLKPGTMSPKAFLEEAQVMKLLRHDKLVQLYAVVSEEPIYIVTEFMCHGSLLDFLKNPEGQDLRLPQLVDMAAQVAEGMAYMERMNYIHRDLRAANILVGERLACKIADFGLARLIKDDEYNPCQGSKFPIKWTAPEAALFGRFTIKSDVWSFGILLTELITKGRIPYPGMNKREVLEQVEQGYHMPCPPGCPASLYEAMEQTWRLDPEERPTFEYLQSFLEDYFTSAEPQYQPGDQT
# c-Src tyrosine kinase = c-Src tyrosine kinase (Homo sapiens (Human), UniProt P12931); test: in vitro c-Src tyrosine kinase inhibition (32P-ATP, poly(D4Y)n substrate); type: biochemical; settings: read-out: % inhibition against c-Src
# c-Src tyrosine kinase, sequence (P12931 whole entry, looked up): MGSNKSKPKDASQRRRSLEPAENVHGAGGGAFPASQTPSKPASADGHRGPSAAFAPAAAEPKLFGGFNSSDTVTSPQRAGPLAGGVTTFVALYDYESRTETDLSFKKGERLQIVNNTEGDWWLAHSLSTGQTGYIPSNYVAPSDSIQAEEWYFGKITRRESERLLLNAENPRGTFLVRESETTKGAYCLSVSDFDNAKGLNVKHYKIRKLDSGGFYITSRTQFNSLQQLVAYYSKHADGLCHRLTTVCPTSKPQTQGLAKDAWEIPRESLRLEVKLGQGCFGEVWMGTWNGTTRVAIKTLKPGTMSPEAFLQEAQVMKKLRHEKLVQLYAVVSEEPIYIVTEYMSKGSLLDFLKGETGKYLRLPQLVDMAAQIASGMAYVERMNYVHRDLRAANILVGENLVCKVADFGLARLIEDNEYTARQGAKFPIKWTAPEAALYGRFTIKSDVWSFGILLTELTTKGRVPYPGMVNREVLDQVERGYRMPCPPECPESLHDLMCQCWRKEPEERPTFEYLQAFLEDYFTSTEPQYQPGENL
# [2] = tested on: NO synthesis in J744A.1 macrophage; test: inhibition of nitric oxide (NO) synthesis in LPS-activated macrophages (Griess reagent); type: cell-based; settings: read-out: Inhibition (%) of NO synthesis
# [3] = tested on: α-smooth muscle actin protein expression in skin fibroblast cells; test: inhibition of α-smooth muscle actin expression in fibroblast activated by type I collagen and TGF-β1 (western blotting); type: cell-based, Balb/C mouse; settings: Mus musculus, read-out: Inhibition (%) of α-smooth muscle actin increase
# From the text: When fibroblast, […] alpha smooth muscle cells are converted to myofibroblast by activation, one of characteristic features is that α-smooth muscle actin protein expression is increased. Also myoblast cells with the increased α-smooth muscle actin expression have a character of an increased migration. These phenomena appear together with the activation of inflammatory cells and the activated myoblast-type cells are known to contribute directly to the pathology of inflammatory diseases. […] In this experiment, the expression level of alpha smooth muscle actin can be quantificated by measuring the density of α-smooth muscle actin protein band with densitometer after developing the X-ray film of chemiluminescence signal in western blotting experiment.
# Hck tyrosine kinase = Hck tyrosine kinase (Homo sapiens (Human), UniProt P08631); test: in vitro Hck tyrosine kinase inhibition; type: biochemical; settings: read-out: % inhibition against Hck
# Hck tyrosine kinase, sequence (P08631 whole entry, the tested form may be a part): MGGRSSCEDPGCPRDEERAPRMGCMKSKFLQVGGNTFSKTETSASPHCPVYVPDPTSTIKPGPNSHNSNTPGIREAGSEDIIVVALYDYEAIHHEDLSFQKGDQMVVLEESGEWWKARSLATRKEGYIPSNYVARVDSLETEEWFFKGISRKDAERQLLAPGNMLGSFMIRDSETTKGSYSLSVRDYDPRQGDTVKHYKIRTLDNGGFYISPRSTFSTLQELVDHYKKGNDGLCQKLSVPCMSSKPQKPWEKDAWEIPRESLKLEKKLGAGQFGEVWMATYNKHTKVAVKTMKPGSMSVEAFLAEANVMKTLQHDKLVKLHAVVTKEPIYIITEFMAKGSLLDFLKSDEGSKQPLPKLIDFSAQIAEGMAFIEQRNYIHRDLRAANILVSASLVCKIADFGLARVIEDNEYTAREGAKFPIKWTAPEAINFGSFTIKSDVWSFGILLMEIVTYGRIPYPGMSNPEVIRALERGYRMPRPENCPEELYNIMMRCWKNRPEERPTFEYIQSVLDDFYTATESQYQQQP
# DDR2 tyrosine kinase = DDR2 tyrosine kinase (Homo sapiens (Human), UniProt Q16832); test: in vitro DDR2 tyrosine kinase inhibition (GST-fused kinase domain); type: biochemical; settings: read-out: % inhibition against DDR2
# DDR2 tyrosine kinase, sequence (Q16832 563-849): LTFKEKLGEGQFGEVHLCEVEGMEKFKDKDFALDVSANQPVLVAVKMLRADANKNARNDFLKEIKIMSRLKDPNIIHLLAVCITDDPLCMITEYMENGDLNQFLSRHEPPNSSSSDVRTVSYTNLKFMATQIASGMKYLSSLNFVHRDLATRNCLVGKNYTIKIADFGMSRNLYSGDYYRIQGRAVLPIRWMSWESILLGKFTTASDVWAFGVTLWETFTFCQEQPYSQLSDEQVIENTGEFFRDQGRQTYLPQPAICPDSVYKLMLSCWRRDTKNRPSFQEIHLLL
# mouse skin fibroblast = test: inhibition of migration of activated fibroblast (scratch wound); type: cell-based; settings: read-out: Inhibition (%) of migration of activated fibroblast
# Method: The straight line of regular width was made using a micro pipette tip for a scratch wound on the mono-layer culture, and then the culture was exchanged to DMEM medium and incubated with 10 ng/ml of TGF-β1 in cell culture incubator of 37° C. for 24 hours. The cultured cells were fixed using formalin and stained with crystal violet. Photo-pictures were taken at 100× magnification in five location selected randomly in the scratched wound site of each stained culture dish and then the number of the cells moved into the scratched wound area was counted and averaged.
# [4] = tested on: TNF-α synthesis in J744A.1 macrophages; test: inhibition of TNF-α synthesis in LPS-activated macrophages (ELISA); type: cell-based; settings: Macrophage, read-out: Inhibition (%) of TNF-α synthesis
# [5] = 0.5 uM compound, 10 ng/ml TGF-β1, 48 hours, type I collagen
# [6] = 0.5 uM compound, 10 ng/ml TGF-β1, 24 hours
# [7] = 10 μM compound, 100 ng/ml LPS, 6 hours
SMILES,inhibition at 1 µM (Lyn tyrosine kinase; 1 uM compound) [%],inhibition at 1 µM (DDR1 tyrosine kinase; 1 uM compound) [%],inhibition at 1 µM (Fgr tyrosine kinase; 1 uM compound) [%],inhibition at 1 µM (c-Src tyrosine kinase; 1 uM compound) [%],inhibition at 1 µM (Hck tyrosine kinase; 1 uM compound) [%],inhibition at 1 µM (DDR2 tyrosine kinase; 1 uM compound) [%],Inhibition (%) of increase of ear thickness [1] [%],inhibition at 10 µM ([2]; 24 h) [%],inhibition at 10 µM ([4]; 6 h) [%],"inhibition at 0.5 µM [3, 5] [%]",inhibition at 0.5 µM (mouse skin fibroblast; [6]) [%],"inhibition at 10 µM ([2]; 10 μM compound, LPS, 24 hours) [%]","inhibition at 10 µM [4, 7] [%]",also measured
"Cc1cc2cc(Nc3ccnc4cc(C(=O)N5CC[C@@H](O)C5)sc34)ccc2n1C(=O)NC1CC1 [Control compound 1, 5-[2-(3R-hydroxy-pyrrolidine-1-carbonyl)-thieno[3,2-b]pyridine-7-ylamino]-2-methyl-indole-1-carboxyacid cycloprophylamide, reference compound]",,,,,,,3,32,16,,,,,inhibition at 1 µM (Lyn tyrosine kinase): < 20%; inhibition at 1 µM (DDR1 tyrosine kinase): < 20%; inhibition at 1 µM (Fgr tyrosine kinase): < 20%; inhibition at 1 µM (c-Src tyrosine kinase): < 20%; inhibition at 0.5 µM ([3]; 48 h): 16%; inhibition at 1 µM (Hck tyrosine kinase): < 20%; inhibition at 1 µM (DDR2 tyrosine kinase): < 20%; inhibition at 0.5 µM (mouse skin fibroblast; 24 h): 17%
"Oc1cccc(Nc2ncnc3cc(-c4ccc(CN5CCCCC5)s4)sc23)c1 [LCB 03-0093, 3-(6-(5-(piperidin-1-ylmethyl)thiophene-2-yl)thieno[3,2-d]pyrimidin-4-ylamino)phenol]",> 60,> 80,> 60,> 60,> 60,> 80,51,79,53,43,31,,,
"Oc1cccc(Nc2ccnc3cc(-c4cccc(CN5CCNCC5)c4)sc23)c1 [LCB 03-0111, 3-(2-(3-(piperazin-1-ylmethyl)phenyl)thieno[3,2-b]pyridin-7-ylamino)phenol]",> 80,> 90,> 80,> 80,> 80,> 90,71,92,57,79,58,,,
"C[C@@H]1CCC[C@H](C)N1Cc1ccc(-c2cc3ncnc(Nc4cccc(O)c4)c3s2)cc1.Cl [LCB 03-0059, 3-(6-(4-(((2R,6S)-2,6-dimethylpiperidin-1-yl)methyl)phenyl)thieno[3,2-d]pyrimidin-4-ylamino)phenol]",> 50,> 80,> 50,> 50,> 50,> 80,59,,,56,29,88,74,
"Oc1cccc(Nc2ccnc3cc(-c4cccc(CN5CCCC5)c4)sc23)c1 [LCB 03-0107, 3-(2-(3-(pyrrolidin-1-ylmethyl)phenyl)thieno[3,2-b]pyridin-7-ylamino)phenol]",> 70,> 80,> 70,> 70,> 70,> 80,59,81,45,71,58,,,
"Cl.Oc1cccc(Nc2ncnc3cc(-c4ccc(CN5CCC(O)C5)cc4)sc23)c1 (centres unmarked) [LCB 03-0072, 1-(4-(4-(3-hydroxyphenylamino)thieno[3,2-d]pyrimidin-6-yl)benzyl)pyrrolidin-3-ol]",,> 80,,,,> 80,48,,,39,27,76,59,
"CCNCc1ccc(-c2cc3nccc(Nc4cccc(O)c4)c3s2)cc1 [LCB 03-0099, 3-(2-(4-((ethylamino)methyl)phenyl)thieno[3,2-b]pyridin-7-ylamino)phenol]",> 30,> 80,> 30,> 30,> 30,> 80,,,,39,29,,,
"CCNCc1ccc(-c2cc3ncnc(Nc4cccc(O)c4)c3s2)s1 [LCB 03-0095, 3-(6-(5-((ethylamino)methyl)thiophene-2-yl)thieno[3,2-d]pyrimidin-4-ylamino)phenol]",> 60,> 80,> 60,> 60,> 50,> 80,43,59,,37,23,,,

# Further lines, with some results ahead:
inhibition at 1 µM (Lyn tyrosine kinase; 1 uM compound) [%],inhibition at 1 µM (DDR1 tyrosine kinase; 1 uM compound) [%],inhibition at 1 µM (Fgr tyrosine kinase; 1 uM compound) [%],inhibition at 1 µM (c-Src tyrosine kinase; 1 uM compound) [%],inhibition at 1 µM (Hck tyrosine kinase; 1 uM compound) [%],inhibition at 1 µM (DDR2 tyrosine kinase; 1 uM compound) [%],SMILES,Inhibition (%) of increase of ear thickness [1] [%],inhibition at 10 µM ([2]; 24 h) [%],inhibition at 10 µM ([4]; 6 h) [%],"inhibition at 0.5 µM [3, 5] [%]",inhibition at 0.5 µM (mouse skin fibroblast; [6]) [%],"inhibition at 10 µM ([2]; 10 μM compound, LPS, 24 hours) [%]","inhibition at 10 µM [4, 7] [%]",also measured
> 80,> 70,> 80,> 80,> 80,> 70,"CCNCc1cccc(-c2cc3ncnc(Nc4cccc(O)c4)c3s2)c1.Cl [LCB 03-0065, 3-(6-(3-((ethylamino)methyl)phenyl)thieno[3,2-d]pyrimidin-4-ylamino)phenol]",52,,,58,35,84,79,
> 60,> 80,> 60,> 60,> 60,> 80,"CN1CCN(Cc2ccc(-c3cc4nccc(Nc5cccc(O)c5)c4s3)cc2)CC1 [LCB 03-0084, 3-(2-(4-((4-methylpiperazin-1-yl)methyl)phenyl)thieno[3,2-b]pyridin-7-ylamino)phenol]",49,,,57,36,85,64,
< 20,< 20,< 20,< 20,< 20,< 20,"COC[C@@H]1CCCN1C(=O)c1cc2nccc(Nc3ccc4c(c3)cc(C)n4C(=O)NC3CC3)c2s1 [Control compound 2, 5-(2-[(S)-2-(methoxymethyl)pyrrolidine-1-carbonyl]thieno[3,2-b]pyridine-7-ylamino)-2-methylindole-1-carboxyacid cycloprophylamide, reference compound]",,,,22,14,45,39,
> 30,> 80,> 30,> 30,> 30,> 80,"Oc1cccc(Nc2ccnc3cc(-c4ccc(CN5CCNCC5)cc4)sc23)c1 [LCB 03-0098, 3-(2-(4-(piperazin-1-ylmethyl)phenyl)thieno[3,2-b]pyridin-7-ylamino)phenol]",,,,51,34,,,
> 30,> 80,> 30,> 30,> 30,> 80,"Oc1cccc(Nc2ccnc3cc(-c4ccc(CN5CCCCC5)cc4)sc23)c1 [LCB 03-0097, 3-(2-(4-(piperidin-1-ylmethyl)phenyl)thieno[3,2-b]pyridin-7-ylamino)phenol]",,,,45,34,,,
